Reference: patent publication US20230272484A1, “METHODS OF PROGNOSING, DETERMINING TREATMENT COURSE AND TREATING MULTIPLE MYELOMA” (Yeda Research and Development Co. Ltd., priority 2020, published 2023)

Tested on: ex-vivo cultured patient malignant plasma cells (PRMM patient Z01)
Assay: FACS apoptosis assay (DAPI and Annexin-V) on ex vivo cultured patient cells
Assay type: cell-based, human
Details: resistant PRMM patient Z01, DAPI and Annexin-V FACS
Method: Finally, it was evaluated whether this synergistic effect is also relevant to PI resistant MM patients. For this end, the present inventors collected BM sample from a highly resistant PRMM patient (Z01, Methods) and sorted the cells for MARS-seq analysis, confirming the patient is also positive for the resistance signature 1 (FIGS. 9E-G). […] The present inventors evaluated the patient ex vivo response to these treatments by FACS analysis of apoptotic cells using DAPI and Annexin-V staining.

CC(C)C[C@H](NC(=O)[C@H](CCc1ccccc1)NC(=O)CN1CCOCC1)C(=O)N[C@@H](Cc1ccccc1)C(=O)N[C@@H](CC(C)C)C(=O)[C@@]1(C)CO1 [Carfilzomib]
live cells: 23.4%
